Laboratory results: PubChem BioAssay (NCI)
Several values for one entry are separate records, joined by “and”; a condition that tells them apart may be missing. Equal values may be shown once.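 Assay format: 96-well plates, 48-hour exposure. Here, GI50 denotes the concentration required for 50% inhibition of growth. TGI denotes the concentration required for complete inhibition of growth.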

Tests used:
Experiment in all cases: NCI tumour cell line growth inhibition, 48 h
[1] = test system: SNB-75 CNS
[2] = test system: OVCAR-4 ovarian
[3] = test system: KM12 colon
[4] = test system: SK-OV-3 ovarian
[5] = test system: RXF 393 renal
[6] = test system: UACC-62 melanoma
[7] = test system: A549 NSCLC
[8] = test system: SK-MEL-2 melanoma
[9] = test system: HCT-116 colon
[10] = test system: NCI/ADR-RES ovarian

SMILES	TGI [1]	TGI [2]	TGI [3]	TGI [4]	TGI [5]	TGI [6]	TGI [7]	TGI [8]	TGI [9]	TGI [10]	GI50 [1]	GI50 [9]	GI50 [10]	GI50 [2]	GI50 [3]	GI50 [4]	GI50 [5]	GI50 [6]	GI50 [7]	GI50 [8]
CC1(c2ccc(Cl)cc2)C2C(=O)NC(=O)C1C(=O)NC2=O (stereo not drawn)	> 100 µM	> 100 µM	> 100 µM	> 100 µM	> 100 µM	> 100 µM	> 100 µM	> 100 µM												
CCc1nc(N)nc(N)c1-c1ccc(N2CCNCC2)cc1	> 100 µM	> 100 µM	> 100 µM	> 100 µM	> 100 µM	> 100 µM	> 100 µM	> 100 µM	> 100 µM	> 100 µM										
CN1CCN(CCCOc2cccc3nc(Nc4ccc(Cl)c(C(F)(F)F)c4)ccc23)CC1	3.78 µM	7.45 µM	3.24 µM	4.35 µM	3.44 µM	3.27 µM	3.66 µM	4.49 µM	2.84 µM	3.37 µM	1.52 µM	1.5 µM	1.73 µM	2.73 µM	1.74 µM	1.99 µM	1.63 µM	1.72 µM	1.72 µM	2.06 µM
Brc1ccc2ns[s+]c2c1	> 100 µM	> 100 µM	> 100 µM	> 100 µM	> 100 µM	> 20.5 µM	> 100 µM	> 100 µM	> 100 µM											
Cc1cc([N+](=O)[O-])c2ccccc2[n+]1[O-]	2.09 µM and 0.722 µM	10.1 µM and 9.13 µM	0.829 µM and 1.05 µM	6.07 µM and 11.6 µM	0.455 µM and 0.512 µM	0.89 µM and 0.833 µM	0.807 µM and 0.905 µM	0.471 µM and 0.404 µM	0.336 µM and 0.364 µM	3.45 µM and 7.68 µM	0.421 µM and 0.165 µM	0.0472 µM and 0.0407 µM	0.547 µM and 1.42 µM	2.72 µM and 2.61 µM	0.173 µM and 0.203 µM	1.94 µM and 3.33 µM	0.181 µM and 0.17 µM	0.252 µM and 0.254 µM	0.245 µM and 0.204 µM	0.209 µM and 0.212 µM
Cc1cc(N2CCN(C)CC2)n2nc(-c3ccc(Cl)cc3)nc2n1	> 100 µM	> 100 µM	> 100 µM	> 100 µM	> 100 µM	> 100 µM	> 100 µM	> 100 µM	> 100 µM	> 100 µM										
CCCCCCC[CH2][Sn]1([CH2]CCCCCCC)[O]C(=O)c2cccnc2[O]1	> 100 µM	> 100 µM	> 100 µM	> 100 µM	> 100 µM	> 100 µM	> 100 µM	> 100 µM	> 100 µM		> 100 µM	> 100 µM		> 100 µM	> 100 µM	> 100 µM	> 100 µM	> 100 µM	> 100 µM	> 100 µM
NC(=O)NC1C(C(N)=O)N(Cc2ccccc2)C(=O)N1Cc1ccccc1 (stereo not drawn)	> 100 µM	> 100 µM	> 100 µM	> 100 µM		> 100 µM	> 100 µM	> 100 µM	> 100 µM											
CCOC(=O)C1(C)CCCCC(=O)N1 (stereo not drawn)	> 100 µM	> 100 µM		> 100 µM	> 100 µM	> 100 µM	> 100 µM													
C#CCOc1ccc2ncnc(Nc3ccc(NC(=O)C=C)cc3)c2c1		> 100 µM	> 100 µM	> 100 µM	58.8 µM	> 100 µM	> 100 µM	> 100 µM	35.9 µM	> 100 µM		10.9 µM	> 100 µM	> 100 µM	34.6 µM	> 100 µM	15.2 µM	47.3 µM	> 100 µM	> 100 µM
CCOC(=O)COc1ccc2c(C)cc(=O)oc2c1	> 100 µM	> 100 µM	> 100 µM		> 100 µM	> 100 µM	> 100 µM	> 100 µM	> 100 µM	> 100 µM										
COc1cc2nc3cc([N+](=O)[O-])ccc3c(NCCNCC(C)(C)O)c2cc1OC	2.05 µM	2.99 µM	2.97 µM	6.51 µM	2.87 µM		5.64 µM	1.75 µM	1.54 µM	20.5 µM	0.608 µM	0.368 µM	5.68 µM	0.672 µM	0.698 µM	2.01 µM	1.07 µM		1.22 µM	0.432 µM
ClC(Cl)[Si]12OCCN(CCO1)CCO2	> 100 µM		> 100 µM	> 100 µM	> 100 µM	> 100 µM	> 100 µM	> 100 µM	> 100 µM											
Cn1nc(-c2ccccc2)c2c(/C=C/c3ccccc3)onc2c1=O	64.5 µM		> 100 µM	> 100 µM	> 100 µM	> 100 µM	> 100 µM	> 100 µM	> 100 µM											
CCN1CCN(C(=O)[C@]23CCC(C)(C)C[C@@H]2C2=CC[C@@H]4[C@@]5(C)C/C(=C/c6ccncc6)C(=O)C(C)(C)[C@@H]5CC[C@@]4(C)[C@]2(C)CC3)CC1		3.2 µM	2.98 µM	4.41 µM	2.81 µM	2.82 µM	4.65 µM	3.33 µM	2.87 µM	3.17 µM		1.35 µM	1.48 µM	1.54 µM	1.47 µM	2.1 µM	1.45 µM	1.46 µM	1.66 µM	1.73 µM
CN(c1ccccc1)c1c(Cl)c(=O)oc2c1ccc1occc12	> 100 µM	> 100 µM			> 100 µM	> 100 µM	> 100 µM	> 100 µM	> 100 µM											
CCOC(=O)c1cnc2c(C)cccc2c1Nc1ccc(C(C)=O)cc1	51 µM	55.3 µM	> 100 µM	> 100 µM	63.8 µM	> 100 µM	> 100 µM		> 100 µM	72.5 µM	15.4 µM	14.2 µM	16.5 µM	13.5 µM	51.2 µM	75.8 µM	4.23 µM	11.4 µM	38.8 µM	
